Measured values from patent publication US20240197652A1, “KETAMINE IN THE TREATMENT OF […]” (Awakn LS Europe Holdings Limited, priority 2021, published 2024).

How the values were obtained:
Assay type in all cases: in vivo, human
[1] = system: subjects with binge eating disorder; experiment: Adverse events, KSET, Example 8; settings: three binge eating disorder subjects; 100 mg racemic ketamine sublingual
total plasma ghrelin = experiment: Total plasma ghrelin, Example 8; settings: for total plasma ghrelin at 90 minutes post-lozenge / % change in total ghrelin: 100 mg racemic ketamine sublingual; for total plasma ghrelin, pre-administration: baseline before 100 mg racemic ketamine sublingual; for % change in total ghrelin: pre-administration to 90 minutes post-lozenge
Protocol: Blood samples were collected from all three subjects. Blood samples were analysed to determine ketamine and ketamine metabolite levels, as well as the hormones leptin and ghrelin. Self-report measures were conducted.
The treatment protocol commenced in substantially the same way as disclosed in the ketamine in subjects with gambling disorder study completed in EXAMPLE 7, with the exceptions outlined as follows: No behavioural tasks were completed. Blood samples collected every 10 minutes from the time of administration to 90 minutes post-administration were additionally analysed for leptin and ghrelin. Self-report measures included the Binge Eating Scale, the Adult Attachment Interview (AAI), a 20 question interview about the subject's recollections of their childhood (Sykes and Turner, 2015); the Childhood Trauma Questionnaire; the Morningness-Eveningness Questionnaire (MEQ), a 19-item questionnaire designed to assess when a respondent prefers to wake up or start sleep (American Thoracic Society, 2022); the DSM-5 Binge Eating Disorder diagnostic criteria; and the SPSRQ.
Changes in ghrelin and leptin were measured. Ghrelin stimulates appetite and food intake, increases fat deposition, and releases growth hormone. Obese binge eating disorder subjects often have reduced plasma ghrelin, possibly due to the downregulation of ghrelin from excess eating or body fat (Atalayer et al. 2013). Leptin forms a negative feedback loop between fat cells and the hypothalamus, wherein leptin secretion signals the hypothalamus to inhibit food intake and increase energy expenditure. Increased leptin may aid in reducing appetite cravings associated with binge eating disorder (Obradovic et al. 2021).

[2] = system: subjects with gambling disorder; experiment: Adverse events, Ketamine Side Effect Tool (KSET), Example 7; settings: five gambling disorder subjects; 100 mg racemic ketamine sublingual
Protocol: Adverse events were assessed with the Ketamine Side Effect Tool (KSET).

[3] = system: subjects of EXAMPLES 7-10; experiment: Beck Depression Inventory (BDI), subjects of Examples 7-10; settings: for BDI Score at the one-week follow up / Depression Severity at the One Week Follow Up (BDI): after 100 mg racemic ketamine sublingual; for BDI Score pre-treatment / Depression Severity Pre-Treatment (BDI): baseline before 100 mg racemic ketamine sublingual; for % Change in BDI score: pre-treatment to one-week follow up, 100 mg racemic ketamine sublingual
Protocol: (§1) The study spanned a total of 30 days (not counting initial contact and prescreening). Prescreening of all subjects was conducted by phone, and subjects recorded self-report measures, including the Sensitivity to Punishment and Sensitivity to Reward Questionnaire (SPSRQ) and the Gambling Related Cognitions Questionnaire. Prior to beginning treatment, each subject completed the Beck Depression Inventory (BDI) to determine a baseline depression score. Total scores of 0-13 are minimal, 14-19 are mild, 20-28 are moderate, and 29-63 are severe (Beck, Steer, and Brown, 1996).

[4] = system: subjects with gambling disorder; experiment: Gambling Related Cognitions Scale (GRCS), gambling expectancy, Example 7; settings: for problem gambling expectancy score (GRCS) at 2-week follow up: after 100 mg racemic ketamine sublingual; for problem gambling expectancy score (GRCS), pre-administration: baseline before 100 mg racemic ketamine sublingual; for % change in problem gambling expectancy: pre-administration to 2-week follow up, 100 mg racemic ketamine sublingual
Protocol: as §1
The remaining follow-up sessions were completed online. Follow-up 1 was completed on Day 4, Follow-up 2 on Day 14, and Follow-up 3 on Day 30. At each follow-up session, the same self-report measures and behavioural tasks were completed.
The five-factor Gambling Related Cognitions Scale (GRCS) was also assessed. The GRCS evaluates gambling-related cognitive distortions for all types of gamblers, regardless of their gambling activities (poker, slots, horse racing, etc.) (Levesque et al., 2017). The GRCS contains five main domains, including inability to stop, expectancies, predictive control, illusion of control, and interpretative bias (Muela, Navas, and Perales, 2021). Gambling expectancy and inability to stop were predictive of problem gambling.

[5] = system: subjects with gambling disorder; experiment: Cue reactivity task: picture pleasure rating and gambling desire rating, Example 7
[6] = subject BE1 (binge eating disorder)
[7] = subject BE2 (binge eating disorder)
[8] = subject BE3 (binge eating disorder)
[9] = baseline before 100 mg racemic ketamine sublingual
[10] = one-week follow up after 100 mg racemic ketamine sublingual
[11] = two-week follow up after 100 mg racemic ketamine sublingual

CNC1(c2ccccc2Cl)CCCCC1=O (racemic) [ketamine, 2-(2-chlorophenyl)-2-(methylamino)-cyclohexanone]
course of adverse events [1]: All adverse events were transient, and resolved two hours post-lozenge | overall tolerability [1]: well-tolerated, with no drop-outs | unexpected adverse reactions (KSET) [1]: no unexpected adverse reactions were observed | total plasma ghrelin at 90 minutes post-lozenge (total plasma ghrelin; subject BE1): 310 pg/mL | total plasma ghrelin, pre-administration (total plasma ghrelin; subject BE1): 254 pg/mL | % change in total ghrelin (total plasma ghrelin; subject BE1): +22.05% | total plasma ghrelin at 90 minutes post-lozenge (total plasma ghrelin; subject BE2): 231 pg/mL | total plasma ghrelin, pre-administration (total plasma ghrelin; subject BE2): 198 pg/mL | % change in total ghrelin (total plasma ghrelin; subject BE2): +16.67% | total plasma ghrelin at 90 minutes post-lozenge (total plasma ghrelin; subject BE3): 274 pg/mL | total plasma ghrelin, pre-administration (total plasma ghrelin; subject BE3): 291 pg/mL | % change in total ghrelin (total plasma ghrelin; subject BE3): −5.84% | course of adverse events [2]: All adverse events were transient, and resolved two hours post-lozenge | overall tolerability [2]: well-tolerated, with no drop-outs | unexpected adverse reactions (KSET) [2]: No unexpected adverse reactions were observed | BDI Score at the one-week follow up [3, 6]: 2 | BDI Score pre-treatment [3, 6]: 9 | % Change in BDI score [3, 6]: −77.78% | BDI Score at the one-week follow up [3, 7]: 15 | BDI Score pre-treatment [3, 7]: 19 | % Change in BDI score [3, 7]: −21.05% | BDI Score at the one-week follow up [3, 8]: 1 | BDI Score pre-treatment [3, 8]: 21 | % Change in BDI score [3, 8]: −95.24% | Depression Severity at the One Week Follow Up (BDI) ([3]; subject BE3): Minimal (Total scores of 0-13 are minimal) | Depression Severity Pre-Treatment (BDI) ([3]; subject BE3): Moderate (20-28 are moderate) | BDI Score at the one-week follow up ([3]; subject CSB1 (CSBD)): 9 | BDI Score pre-treatment ([3]; subject CSB1 (CSBD)): 24 | % Change in BDI score ([3]; subject CSB1 (CSBD)): −62.50% | Depression Severity at the One Week Follow Up (BDI) ([3]; subject CSB1): Minimal (Total scores of 0-13 are minimal) | Depression Severity Pre-Treatment (BDI) ([3]; subject CSB1): Moderate (20-28 are moderate) | BDI Score at the one-week follow up ([3]; subject CSB2 (CSBD)): 12 | BDI Score pre-treatment ([3]; subject CSB2 (CSBD)): 14 | % Change in BDI score ([3]; subject CSB2 (CSBD)): −14.29% | Depression Severity at the One Week Follow Up (BDI) ([3]; subject CSB2): Minimal (Total scores of 0-13 are minimal) | Depression Severity Pre-Treatment (BDI) ([3]; subject CSB2): Mild (14-19 are mild) | BDI Score at the one-week follow up ([3]; subject CSB3 (CSBD)): 7 | BDI Score pre-treatment ([3]; subject CSB3 (CSBD)): 19 | % Change in BDI score ([3]; subject CSB3 (CSBD)): −63.16% | Depression Severity at the One Week Follow Up (BDI) ([3]; subject CSB3): Minimal (Total scores of 0-13 are minimal) | Depression Severity Pre-Treatment (BDI) ([3]; subject CSB3): Mild (14-19 are mild) | BDI Score at the one-week follow up ([3]; subject G1 (gambling disorder)): 9 | BDI Score pre-treatment ([3]; subject G1 (gambling disorder)): 8 | % Change in BDI score ([3]; subject G1 (gambling disorder)): +12.5% | BDI Score at the one-week follow up ([3]; subject G2 (gambling disorder)): 24 | BDI Score pre-treatment ([3]; subject G2 (gambling disorder)): 21 | % Change in BDI score ([3]; subject G2 (gambling disorder)): +14.29% | BDI Score at the one-week follow up ([3]; subject G3 (gambling disorder)): 14 | BDI Score pre-treatment ([3]; subject G3 (gambling disorder)): 17 | % Change in BDI score ([3]; subject G3 (gambling disorder)): −17.65% | BDI Score at the one-week follow up ([3]; subject G4 (gambling disorder)): 6 | BDI Score pre-treatment ([3]; subject G4 (gambling disorder)): 8 | % Change in BDI score ([3]; subject G4 (gambling disorder)): −25% | BDI Score at the one-week follow up ([3]; subject G5 (gambling disorder)): 11 | BDI Score pre-treatment ([3]; subject G5 (gambling disorder)): 12 | % Change in BDI score ([3]; subject G5 (gambling disorder)): −8.33% | BDI Score at the one-week follow up ([3]; subject IG1 (gaming disorder)): 10 | BDI Score pre-treatment ([3]; subject IG1 (gaming disorder)): 15 | % Change in BDI score ([3]; subject IG1 (gaming disorder)): −33.33% | Depression Severity at the One Week Follow Up (BDI) ([3]; subject IG1): Minimal (Total scores of 0-13 are minimal) | Depression Severity Pre-Treatment (BDI) ([3]; subject IG1): Mild (14-19 are mild) | BDI Score at the one-week follow up ([3]; subject IG2 (gaming disorder)): 8 | BDI Score pre-treatment ([3]; subject IG2 (gaming disorder)): 4 | % Change in BDI score ([3]; subject IG2 (gaming disorder)): +100% | BDI Score at the one-week follow up ([3]; subject IG3 (gaming disorder)): 9 | BDI Score pre-treatment ([3]; subject IG3 (gaming disorder)): 10 | % Change in BDI score ([3]; subject IG3 (gaming disorder)): −10% | problem gambling expectancy score (GRCS) at 2-week follow up ([4]; subject G1): 5.5 | problem gambling expectancy score (GRCS), pre-administration ([4]; subject G1): 5 | % change in problem gambling expectancy ([4]; subject G1): +10% | problem gambling expectancy score (GRCS) at 2-week follow up ([4]; subject G2): 2.5 | problem gambling expectancy score (GRCS), pre-administration ([4]; subject G2): 5.5 | % change in problem gambling expectancy ([4]; subject G2): −54.55% | problem gambling expectancy score (GRCS) at 2-week follow up ([4]; subject G3): 4.5 | problem gambling expectancy score (GRCS), pre-administration ([4]; subject G3): 5.25 | % change in problem gambling expectancy ([4]; subject G3): −14.29% | problem gambling expectancy score (GRCS) at 2-week follow up ([4]; subject G4): 2.5 | problem gambling expectancy score (GRCS), pre-administration ([4]; subject G4): 3.75 | % change in problem gambling expectancy ([4]; subject G4): −33.33% | problem gambling expectancy score (GRCS) at 2-week follow up ([4]; subject G5): 1 | problem gambling expectancy score (GRCS), pre-administration ([4]; subject G5): 1.25 | % change in problem gambling expectancy ([4]; subject G5): −20% | gambling desire rating, mean [5, 9]: 2.25 | picture pleasure rating, mean [5, 9]: 3.25 | gambling desire rating, mean [5, 10]: −0.25 | picture pleasure rating, mean [5, 10]: 1.33 | gambling desire rating, mean [5, 11]: −0.25 | picture pleasure rating, mean [5, 11]: −0.83
